Test results published in patent US11759651B2, “In vivo visualization and control of pathological changes in neural circuits” (THE REGENTS OF THE UNIVERSITY OF CALIFORNIA, priority 2011, dated 2023).
Read-outs that look alike come from different tables or passages of the source.

What was measured:
[1] = tested on: hippocampal network activity; conditions: cited from earlier work
[2] = tested on: APP/PS1 mice; test: LTP in the hippocampus; format: in vivo, mouse; conditions: APP/PS1-vehicle vs. APP/PS1-LM11A-31, p=0.02, wt-vehicle vs. wt-LM11A-31, NS
[3] = tested on: APP^L/S mice; test: APP immunolabeling for dystrophic neurites and Thioflavin S staining for amyloid plaques in hippocampus; format: in vivo; conditions: APP^L/S mice given vehicle or LM11A-31; transgenic mouse model of AD
[4] = tested on: APP^L/S mice; test: Choline acetyltransferase immunostaining of basal forebrain sections; format: in vivo, mouse; conditions: APP^L/S mice treated with LM11A-31
Experimental: Scale bars=25 μm. b, Photomicrograph of choline acetyltransferase-immunostained basal forebrain sections. […] Statistical significance was determined using ANOVA and post-hoc Student-Neuman-Keuls testing.

[5] = tested on: APPL/S mice; test: Object recognition test; format: in vivo, mouse; conditions: ANOVA and post-hoc Student-Neuman-Keuls testing
[6] = 10 μM NBQX and 25 μM D-AP5 applied together, stimulus pulse applied to DG, 400 μm-thick ventral hippocampal slice

Q: With `NC(CCCP(=O)(O)O)C(=O)O` [D-AP5] as the molecule, how does the VSDI signal [1, 6] read?
A: The VSDI signal was “abolished”.

Q: Which VSDI signal [1] does the source give for `COc1ccc(-c2ccc(=N)n(CCCC(=O)O)n2)cc1` [GABAzine] here?
A: The VSDI signal was “confirmed signal extinction”.

Q: Which results are given for `CC[C@H](C)[C@H](N)C(=O)NCCN1CCOCC1` [LM11A-31]?
A: LTP [2]: normalizes LTP; dystrophic neurites and amyloid plaque formation in the hippocampus [3]: rescued significantly; length, volume and branching of cholinergic neurites in the basal forebrain [4]: increased length, volume, and branching of cholinergic neurites; object recognition deficits [5]: prevented object recognition deficits

Q: For `NS(=O)(=O)c1cccc2c1c([N+](=O)[O-])cc1nc(O)c(O)nc12` [NBQX], which VSDI signal [1, 6] is on record?
A: Its VSDI signal is “abolished”.
